The values that follow come from patent US20200316159A1, “SUSTAINED RELEASE COMPOSITIONS OF KAPPA-OPIOID RECEPTOR AGONIST” (JT PHARMACEUTICALS, INC., priority 2016, published 2020).

Entries after “also recorded” stand apart in the source; their conditions may differ.

Series [1] concerns dysphoria (time spent immobile). Put plainly: Forced swim assay. Type of series: in vivo, rat. As to the method:
The most common reason for discontinuing development of kappa agonists is the induction of dysphoria, which is mediated through CNS kappa receptors. To test for this side effect, we used an established model: the repeated forced swim assay. Rats were placed in a container with 30° C. water without an escape avenue. Time spent immobile during the last 4 min of each trial was recorded. Immobility was defined by a posture in which the forelimbs were motionless in front of the body, hind legs display limited motion, and the tail is directed outward. On day one, rats were placed in the water for 15 min. On the following day, placements consisted of four trials lasting 6 min each, separated by 10 mins. Salvorin A (1 mg/kg, i.p.) or JT09 (20 mg/kg, p.o.) were administered immediately before the first placement. Time spent immobile is a diagnostic of dysphoria and typically increases with each trial. Salvinorin A (a centrally available kappa agonist) was used as a positive control due to its known […] effects such as dysphoria.

A short description of series [2]: Maximum tolerated dose determination. Type of series: in vivo, rat. The settings on record: p.o., six rats per dose level, observed 4 days. As to the method: Maximum Tolerated Dose Determination.
In order to determine the maximum dose of JT09 that can be tolerated, its dose level was increased until the maximum tolerated dose (MTD) was identified or, if MTD dose was not reached, the maximum-administered dose (MAD). […] Six rats were included at each dose level (50, 70, and 90 mg/kg, p.o.). The animals were observed twice daily; body weights and detailed clinical observations for behavioral toxicity (porphyrin staining, changes in activity levels, changes in grooming habits, convulsions, catalepsy, muscular rigidity, and excessive vocalization) were made daily for 4 days after dosing at each level. Doses were chosen based on the compound's ED50 for analgesic potency.

In series [3] the test system is abuse liability (lever pressing for intravenous drug delivery). Put plainly: Self-administration model. Type of series: in vivo, rat. From the text: Self-Administration Model.
Addiction/dependence is a critical side effect of opioids and must be evaluated with any new member of this family. The most reliable test of abuse liability with the most translational relevance is a contingent drug self-administration model, in which rats are trained to press a lever for intravenous drug delivery. Sixteen standard self-administration chambers (30×20×20 cm, Med Associates) were housed inside sound-attenuating cubicles fitted with a fan for airflow and to mask noise. Each chamber contained two retractable levers, two stimulus lights, a speaker for tone delivery, and a house light to provide general illumination. In addition, each chamber was equipped with a balanced metal arm and spring leash attached to a swivel (Instech). Tygon® tubing extended through the leash and was connected to a 10 ml syringe mounted on an infusion pump located outside the sound-attenuating cubicle. Rats were anesthetized with i.p. injections of ketamine (66 mg/kg; Vedcolnc, St Joseph, Mo., USA), xylazine (1.3 mg/kg; Lloyd Laboratories, Shenandoah, Iowa, USA), and equithesin (0.5 ml/kg); sodium pentobarbital (4 mg/kg), chloral hydrate (17 mg/kg), and 21.3 mg/kg magnesium sulfate heptahydrate dissolved in 44% propylene glycol, 10% ethanol solution). Ketorolac (2.0 mg/kg, i.p. Sigma, St. Louis, Mo., USA) was given just prior to surgery as an analgesic. One end of a silastic catheter was inserted 33 mm into the external right jugular and secured with 4.0 silk sutures. The other end ran subcutaneously and exited from a small incision just below the scapula. This end is attached to an infusion harness (Instech Solomon, Plymouth Meeting, Pa., USA) that provides access to an external port for IV drug delivery. […]
During self-administration, rats received an IV infusion (0.1 ml) of 10 U/ml heparinized saline before each session. […] Cocaine was chosen for comparison purposes because it is readily self-administered.

The test system of series [4] is peripheral pain (acetic acid-induced writhing). Nature of the series: Acetic acid-induced writhing model (Example 1). Type of series: in vivo, rat (male Sprague-Dawley). The protocol: Acetic Acid-Induced Writhing Model.
This protocol is a well-established model of peripheral pain. Following oral or i.v. administration of compound, rats are rested for 20 min before i.p. injection with 2 ml/kg of 3% acetic acid. Animals are then rested an additional 10 min before being placed in a 10×10 inch chamber. A video of the rats is then recorded for next 20 min. The video is subsequently blindly scored by an investigator who examines each rat every 20 sec for the entire 20 min (60 individual observations). At each observation rats are scored on whether they are writhing or not. Writhing is defined as a constriction of the abdominal area, often with extension of the hind legs. At the end of the experiment the percent of the time the animal was writhing was calculated. The dose-response curves and EC50 values were generated using GraphPad Prism®.
As an initial biological screen the potential for oral availability of the 18 peptides in our library were evaluated in a well-established model of peripheral pain, the acetic acid-induced writhing assay. Rats were administered the various compounds by oral gavage at a screening dose of 20 mg/kg 20 min before i.p. injection with 2 ml/kg of 3% acetic acid. 10 min later animals were assessed for writhing as indicated in the methods section. […] Thus, several of the Arg modifications can impart CR665 with the ability to cross the gut barrier. Compounds 3, 7, 9, 11 and 17 were selected for further analysis.
In general terms: An intraperitoneal irritant provokes the stretching counted in writhing tests.

Series [5] is described as follows: Multiple dose study (14 days). Type of series: in vivo, rat. The settings on record: 30 mg/kg oral daily for 14 days. From the text:
Tolerance to the analgesic effects of the lead compounds was be assessed using the acetic acid-induced writhing assay (described above). Daily clinical observations for behavioral toxicity (described above) were made during the course of the experiment and body weight and food consumption recorded on study days 3, 5, 7, 9, 11 and 13. On day 15, animals were sacrificed in their home cages by carbon dioxide inhalation from a compressed gas tank. A gross necroscopic analysis was immediately performed following euthanasia.

In the case of `CCCC[C@@H](NC(=O)[C@@H](Cc1ccccc1)NC(=O)[C@H](N)Cc1ccccc1)C(=O)N[C@H](CCCCN(C)C)C(=O)NCc1ccncc1` [Compound 9], the “immobility time in forced swim versus saline” value in series [1] (20 mg/kg p.o., listed as JT09) was “statistically indistinguishable; also recorded: did not induce more than a baseline time of immobility”. Further, in series [1] (JT09 20 mg/kg p.o. versus salvinorin A 1 mg/kg i.p., all trials), the “immobility time in forced swim relative to salvinorin A” value is recorded as “lower amounts of time spent immobile”. In addition, in series [2], the “maximum administered dose (MAD) without mortality, loss of more than 10% body weight or overt signs of toxicity” value is recorded as 90 mg/kg. Besides, the “lever responding in operant self-administration” value in series [3] (IV infusion 20 mg/kg/inf, 2-hr sessions, five-day period, n=8) is given as “failed to maintain lever responding”. Moreover, the “number of infusions in self-administration” value in series [3] (JT09 IV, days 2-5 compared to day one) is listed as “decreased on all 4 days”. Also, in series [4] (i.v.), the “EC50, i.v. dose response in writhing assay” value was 0.032 mg/kg. Further, in series [4] (oral), the “EC50, oral dose-response in acetic acid writhing model” value is 4.7 mg/kg. Besides, the “tolerance (negative CNS-mediated effects associated with morphine)” value in series [5] is “does not promote”. For the same compound, the “gross necropsy: heart, stomach, intestines, liver, spleen, pancreas, kidneys, adrenal glands, skeletal muscle, bone, reproductive organs, brain” value in series [5] (six rats) was “grossly normal”. The “gross necropsy: lungs” value in series [5] (attributed to CO2 euthanasia hemorrhage) is reported as “slight grey discoloration”.
